{
  "source": "patent US20240166646A1",
  "about": "“1H-PYRROLO[2,3-B]PYRIDINE DERIVATIVES AS BCL-2 INHIBITORS FOR THE TREATMENT OF NEOPLASTIC AND AUTOIMMUNE DISEASES” (Newave Pharmaceutical Inc., priority 2020, published 2024)",
  "note": "Where a name gives a salt, the structure may show the parent alone.",
  "data": [
    {"molecular_target": "Bcl-2 (Homo sapiens (Human), UniProt P10415)", "sequence (P10415 whole entry)": "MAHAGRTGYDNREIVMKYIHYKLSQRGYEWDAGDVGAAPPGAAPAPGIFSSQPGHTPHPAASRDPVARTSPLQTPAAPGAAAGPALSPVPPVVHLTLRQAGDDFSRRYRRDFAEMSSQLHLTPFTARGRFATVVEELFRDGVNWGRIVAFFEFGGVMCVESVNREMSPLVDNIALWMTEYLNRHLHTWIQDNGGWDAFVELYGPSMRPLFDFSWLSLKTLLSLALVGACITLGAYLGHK", "assay": "Bcl-2 competition binding (fluorescence polarization) assay", "conditions": "fluorescein labeled BH3 peptide 15 nM, Bcl-2 protein 30 nM, 3 hours of incubation at room temperature", "procedure": "Biological Example 1: Bcl-2 Competition Binding (Fluorescence Polarization) Assay\nThe fluorescence-labeled 23 amino acid peptide BH3 was purchased from CalBiochem ([…]). […] This binding assay was performed in 96-well plate and with each assay contained 15 and 30 nM of labeled peptide and purified Bcl-2 protein (purchased from R&D Systems, Inc). The assay buffer contained 20 mM Hepes (pH 7.0), 50 mM KCl, 5 mM MgCl2, 20 mM Na2MoO4, 0.1 mg/mi Bovine Gamma Globulin and 0.01% NP40. Compounds were diluted in DMS0 and added to the final assay with concentration range from 20 μM to 2 nM. The polarization degree (mP) value was determined by BioTek Synergy II with background subtraction after 3 hours of incubation at room temperature. IC50 was calculated using Prism software with sigmoidal dose-response curve fitting. ABT-737 was used as reference compound. Such assays, carried out with a range of doses of test compounds, allowed the determination of an approximate IC50 value.", "units": {"IC50": "nM"}, "values": [
      {"smiles": "O=C(NS(=O)(=O)c1ccc(NCC2CCOCC2)c([N+](=O)[O-])c1)c1ccc(N2CCC3(CC2)CC(N2CCC[C@H]2c2ccccc2)C3)cc1N1c2cc3cc[nH]c3nc2O[C@@H]2COC[C@H]21", "note": "[Example 12, 2-[(11R,15S)-13,16-dioxa-2,4,10-triazatetracyclo[7.7.0.0^{3,7}.0^{11,15}]hexadeca-1(9),2,5,7-tetraen-10-yl]-N-{3-nitro-4-[(oxan-4-ylmethyl)amino]benzenesulfonyl}-4-{2-[(2S)-2-phenylpyrrolidin-1-yl]-7-azaspiro[3.5]nonan-7-yl}benzamide hydrochloride]", "IC50": 0.161},
      {"smiles": "O=C(NS(=O)(=O)c1ccc(NCC2CCOCC2)c([N+](=O)[O-])c1)c1ccc(N2CCC3(CC2)CC(N2CCC[C@H]2c2ccccc2-c2cccnc2)C3)cc1N1c2cc3cc[nH]c3nc2O[C@@H]2COC[C@H]21", "note": "[Example 13, 2-[(11R,15S)-13,16-dioxa-2,4,10-triazatetracyclo[7.7.0.0^{3,7}.0^{11,15}]hexadeca-1(9),2,5,7-tetraen-10-yl]-N-{3-nitro-4-[(oxan-4-ylmethyl)amino]benzenesulfonyl}-4-{2-[(2S)-2-[2-(pyridin-3-yl)phenyl]pyrrolidin-1-yl]-7-azaspiro[3.5]nonan-7-yl}benzamide hydrochloride]", "IC50": 2.42},
      {"smiles": "O=C(NS(=O)(=O)c1ccc(NCC2CCOCC2)c([N+](=O)[O-])c1)c1ccc(N2CCC3(CC2)CC(N2CCC[C@H]2c2ccccc2-c2ccncc2)C3)cc1N1c2cc3cc[nH]c3nc2O[C@@H]2COC[C@H]21", "note": "[Example 14, 2-[(11R,15S)-13,16-dioxa-2,4,10-triazatetracyclo[7.7.0.0^{3,7}.0^{11,15}]hexadeca-1(9),2,5,7-tetraen-10-yl]-N-{3-nitro-4-[(oxan-4-ylmethyl)amino]benzenesulfonyl}-4-{2-[(2S)-2-[2-(pyridin-4-yl)phenyl]pyrrolidin-1-yl]-7-azaspiro[3.5]nonan-7-yl}benzamide hydrochloride]", "IC50": 0.74},
      {"smiles": "O=C(NS(=O)(=O)c1ccc(NCC2CCOCC2)c([N+](=O)[O-])c1)c1ccc(N2CCC3(CC2)CC(N2CCC[C@H]2c2ccccc2C(F)(F)F)C3)cc1N1c2cc3cc[nH]c3nc2O[C@@H]2COC[C@H]21", "note": "[Example 15, 2-[(11R,15S)-13,16-dioxa-2,4,10-triazatetracyclo[7.7.0.0^{3,7}.0^{11,15}]hexadeca-1(9),2,5,7-tetraen-10-yl]-N-{3-nitro-4-[(oxan-4-ylmethyl)amino]benzenesulfonyl}-4-{2-[(2S)-2-[2-(trifluoromethyl)phenyl]pyrrolidin-1-yl]-7-azaspiro[3.5]nonan-7-yl}benzamide hydrochloride]", "IC50": 0.2},
      {"smiles": "COc1ccccc1[C@@H]1CCCN1C1CC2(CCN(c3ccc(C(=O)NS(=O)(=O)c4ccc(NCC5CCOCC5)c([N+](=O)[O-])c4)c(N4c5cc6cc[nH]c6nc5O[C@@H]5COC[C@H]54)c3)CC2)C1", "note": "[Example 16, 2-[(11R,15S)-13,16-dioxa-2,4,10-triazatetracyclo[7.7.0.0^{3,7}.0^{11,15}]hexadeca-1(9),2,5,7-tetraen-10-yl]-4-{2-[(2S)-2-(2-methoxyphenyl)pyrrolidin-1-yl]-7-azaspiro[3.5]nonan-7-yl}-N-{3-nitro-4-[(oxan-4-ylmethyl)amino]benzenesulfonyl}benzamide]", "IC50": 0.09},
      {"smiles": "O=C(NS(=O)(=O)c1ccc(NCC2CCOCC2)c([N+](=O)[O-])c1)c1ccc(N2CCC3(CC2)CC(N2CCC[C@H]2c2ccccc2-c2ccccn2)C3)cc1N1c2cc3cc[nH]c3nc2O[C@@H]2COC[C@H]21", "note": "[Example 18, 2-[(11R,15S)-13,16-dioxa-2,4,10-triazatetracyclo[7.7.0.0^{3,7}.0^{11,15}]hexadeca-1(9),2,5,7-tetraen-10-yl]-N-{3-nitro-4-[(oxan-4-ylmethyl)amino]benzenesulfonyl}-4-{2-[(2S)-2-[2-(pyridin-2-yl)phenyl]pyrrolidin-1-yl]-7-azaspiro[3.5]nonan-7-yl}benzamide]", "IC50": 0.42}
    ]}
  ]
}
